For test [1], the system named is conjunctival blood vessels of rabbit eyes. In words: Evans blue dye assay of conjunctival vascular permeability. It is filed as in vivo, New Zealand White rabbits. The procedure:
Method 1: Evans blue dye assay. […] Animals were anesthetized with 2-5% isofluorane gas administered via mask. The eyes were sterilized with 5% iodine (povidone iodine (HUMCO, Texarkana, Tex., USA) diluted to 5% in BSS (Alcon, Fort Worth, Tex., USA)) and 2-3 drops of 0.5% ophthalmic proparacaine (Alcon, Fort Worth, Tex., USA) was administered as a topical anesthetic. Right eyes (OD) received subconjunctival injections of 50 microliters of C-NOD in 100% DMSO. Left eyes (OS) received subconjunctival injections of 50 microliters of 100% DMSO. 40 mg/kg of Evans blue dye (Sigma-Aldrich, St. Louis, Mo., USA) was then injected into an ear vein. Eyes were photographed and tear samples were collected at 1, 2 and 3 days post injection. Tears were collected by insertion of 7 mm discs of Whatman 3M filter paper (Whatman, Inc., Piscataway, N.J., USA) under the lower eyelid for 2 minutes. The filter paper discs were stored in 200 microliters of a phosphate buffered saline solution […] at 5-10° C. Absorption at 620 nm was used to quantify Evans blue dye in tears.
An initial test of the ability of a nitric oxide donor B-NOD (Bing, R. J., Biochem. Biophys. Res. Comm. (2000) 275, 350) to increase conjunctival vascular permeability was performed. Fifty microliters of 100 mg/ml B-NOD in DMSO was injected OD, while DMSO vehicle was injected OS. Some eyes received no injection. Vascular permeability was assessed using the Evans blue dye assay. […] The difference between B-NOD and C-NOD may be due to the shorter half-life predicted for B-NOD.

Test [2] concerns rabbit eyes. To be noted: 1 day post-injection.
Protocol: Initial tests on some other candidate stimulators of vascular permeability was performed.
Test [3] deals with epithelial corneal lesions in diabetic patients. To be noted: prospective, randomized, masked clinical trial; cited from earlier work.
Test [4] has as its system rabbit eyes (tears). As to the kind of experiment: Total protein and serum albumin assay of tears. It is filed as in vivo, New Zealand White rabbits. The procedure: Prior to subconjunctival injection, tear samples were collected from the eyes of the rabbits. Tears were collected by simultaneous insertion of two 7 mm discs of Whatman 3M filter paper (Whatman, Inc., Piscataway, N.J., USA) under the lower eyelid for 2 minutes. The filter paper discs were stored in 200 microliters of a phosphate buffered saline solution containing 0.05% Tween and 0.02% sodium azide at 5-10° C. Animals were anesthetized with 2-5% isofluorane gas administered via mask. The eyes were sterilized with 5% iodine (povidone iodine (HUMCO, Texarkana, Tex., USA) diluted to 5% in BSS (Alcon, Fort Worth, Tex., USA)) and 2-3 drops of 0.5% ophthalmic proparacaine (Alcon, Fort Worth, Texan, USA) was administered as a topical anesthetic. Right eyes (OD) received subconjunctival injections of 50 microliters of C-NOD in 100% DMSO. Left eyes (OS) received subconjunctival injections of 50 microliters of 100% DMSO. Tear samples were collected at 1 hour, then every day for up to 5 days.
Protein content of tears was assessed by two methods. First, total protein was measured using a Bio-Rad Protein Assay Kit (Bio-Rad Laboratories, Hercules, Calif., USA). Second, rabbit serum albumin was measured using an Assaypro Rabbit Albumin ELISA kit (Assaypro LLC, St. Charles, Mo., USA). Both kits were used according to the manufacturer's instructions. […]

Results on six molecules are retold here after patent US20110217262A1, “Treatment of Ocular Surface Disorders by Increasing Conjunctival Vascular Permeability” (priority 2010, published 2011).

Consider `O=C(Oc1cccc(CO[N+](=O)[O-])c1)c1ccccc1O` [B-NOD], for which the “Evans blue dye in tears versus uninjected eyes” value in test [1] (50 microliters of 100 mg/ml in DMSO, by 24 hours) is “This difference disappeared”; in test [1] (50 microliters of 100 mg/ml in DMSO, six hours post-injection), “more Evans blue dye than did uninjected eyes”. Further, the “Evans blue dye in tears versus vehicle injected eyes” value in test [1] (50 microliters of 100 mg/ml in DMSO, throughout the experiment) is given as “about the same amount of Evans blue dye as did vehicle injected eyes”.
In the case of `NCCc1c[nH]c2ccc(O)cc12` [Serotonin], in test [2], the Chemosis entry is given as “Trace”, the Injection entry was “None” and the Mucous discharge result is on record as “None”.
Consider hyaluronic acid, for which, in test [3], the epithelial healing time is 7.1 days.
For `CCOC(=O)Oc1ccccc1C(=O)Oc1cccc(CO[N+](=O)[O-])c1` [C-NOD], in test [4] (10 or 20 mg/cc, 1 day post injection, relative to uninjected eyes, N=4), the “total protein content of tears” value is “significantly increased protein content of tears”. Moreover, the “proportion of serum albumin in tears (albumin to total protein)” value in test [4] (each concentration, relative to vehicle injection, 1 hour and 5 days post-injection) is “increased”. The “presence of subconjunctival dark Evans blue dye (photographs)” value in test [1] (66 mg/ml subconjunctival, 24, 48 and 72 hours post injection, versus vehicle injected eyes) is “evident”. For the same molecule, the “Evans blue dye in tears versus DMSO vehicle injected eyes” value in test [1] (absorption at 620 nm, in most cases, especially at 48 hours) is “more Evans blue dye present in the tears”.
For `NCCc1c[nH]cn1` [Histamine], in test [2], the Injection result was “Trace” and the Mucous discharge result is “Trace”. Moreover, the “observable clinical response in the eyes” value in test [2] (conditions not optimized) was “observable clinical response”.

B1: Angiopoietin-2: candidate stimulator of vascular permeability (protein, UniProt O15123 19-496, looked up)
Angiopoietin-2: YNNFRKSMDSIGKKQYQVQHGSCSYTFLLPEMDNCRSSSSPYVSNAVQRDAPLEYDDSVQRLQVLENIMENNTQWLMKLENYIQDNMKKEMVEIQQNAVQNQTAVMIEIGTNLLNQTAEQTRKLTDVEAQVLNQTTRLELQLLEHSLSTNKLEKQILDQTSEINKLQDKNSFLEKKVLAMEDKHIIQLQSIKEEKDQLQVLVSKQNSIIEELEKKIVTATVNNSVLQKQQHDLMETVNNLLTMMSTSNSAKDPTVAKEEQISFRDCAEVFKSGHTTNGIYTLTFPNSTEEIKAYCDMEAGGGGWTIIQRREDGSVDFQRTWKEYKVGFGNPSGEYWLGNEFVSQLTNQQRYVLKIHLKDWEGNEAYSLYEHFYLSSEELNYRIHLKGLTGTAGKISSISQPGNDFSTKDGDNDKCICKCSQMLTGGWWFDACGPSNLNGMYYPQRQNTNKFNGIKWYYWKGSGYSLKATTMMIRPADF
Turning to B1, in test [2], the Chemosis result was “None”, the Injection entry is recorded as “None” and the Mucous discharge result was “None”.
